System: BT-549
Assay: normalised response (% of control), CellTiter-Glo; higher = more viable cells (100 = DMSO, 0 = benzethonium chloride kill control)
Conditions: incubation time: 72 h
Description: (§1)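 DSRT, 72 h incubation, CellTox Green / CellTiter-Glo readout. Signal is normalised to DMSO and benzethonium chloride controls. Value is the normalised response at the highest dose.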

In order of falling normalised response:
1. CCCc1cc(C)[nH]c(=O)c1CNC(=O)c1cc(-c2ccnc(N3CCN(C)CC3)c2)cc2c1cnn2C(C)C [GSK343] (10000 nM)  77.1%
2. CC(C)NC[C@@H](C(=O)N1CCN(c2ncnc3c2[C@H](C)C[C@H]3O)CC1)c1ccc(Cl)cc1 [GDC-0068] (10000 nM)  55.3%
3. COc1cc(Nc2ncc(F)c(Nc3ccc4c(n3)N(COP(=O)(O)O)C(=O)C(C)(C)O4)n2)cc(OC)c1OC [Fostamatinib] (2500 nM)  39.7%

System: MDA-MB-468
Assay: as above
Conditions: incubation time: 72 h
Description: as §1

In order of rising normalised response:
1. CCc1cnn2c(NCc3ccc[n+]([O-])c3)cc(N3CCCC[C@H]3CCO)nc12 [Dinaciclib] (1000 nM)  6.62%
2. CCCc1cc(C)[nH]c(=O)c1CNC(=O)c1cc(-c2ccnc(N3CCN(C)CC3)c2)cc2c1cnn2C(C)C [GSK343] (10000 nM)  11.1%
3. CC[C@H](CC#N)OC(=O)N[C@@H](C)c1cccc(NC(=O)Nc2ccc(-c3cnco3)c(OC)c2)c1 [AVN944] (10000 nM)  30%
4. CC(C)(C)Cn1c(N)nc2ccc(-c3[nH]c(C(C)(C)C)nc3-c3ccc(F)cc3)nc21 (10000 nM)  37%
5. CC(C)NC[C@@H](C(=O)N1CCN(c2ncnc3c2[C@H](C)C[C@H]3O)CC1)c1ccc(Cl)cc1 [GDC-0068] (10000 nM)  43.4%
6. COc1cc(Nc2ncc(F)c(Nc3ccc4c(n3)N(COP(=O)(O)O)C(=O)C(C)(C)O4)n2)cc(OC)c1OC [Fostamatinib] (2500 nM)  64.4%
7. Cc1c(C(=O)Nc2ccc(N3C[C@@H](C)O[C@@H](C)C3)nc2)cccc1-c1ccc(OC(F)(F)F)cc1 [Erismodegib] (10000 nM)  74.7%
8. Cn1cc(C[C@@H](N)C(=O)O)c2ccccc21 [1-methyl-D-tryptophan] (5000 nM)  96.7%

System: Hs578T
Assay: as above
Conditions: incubation time: 72 h
Description: as §1

In order of rising normalised response:
1. COc1cc(Nc2ncc(F)c(Nc3ccc4c(n3)N(COP(=O)(O)O)C(=O)C(C)(C)O4)n2)cc(OC)c1OC [Fostamatinib] (2500 nM)  15.1%
2. CCc1cnn2c(NCc3ccc[n+]([O-])c3)cc(N3CCCC[C@H]3CCO)nc12 [Dinaciclib] (1000 nM)  17.1%
3. CC[C@H](CC#N)OC(=O)N[C@@H](C)c1cccc(NC(=O)Nc2ccc(-c3cnco3)c(OC)c2)c1 [AVN944] (10000 nM)  35.4%
4. CC(C)NC[C@@H](C(=O)N1CCN(c2ncnc3c2[C@H](C)C[C@H]3O)CC1)c1ccc(Cl)cc1 [GDC-0068] (10000 nM)  65.1%
5. CCCc1cc(C)[nH]c(=O)c1CNC(=O)c1cc(-c2ccnc(N3CCN(C)CC3)c2)cc2c1cnn2C(C)C [GSK343] (10000 nM)  74.4%
6. CC(C)(C)Cn1c(N)nc2ccc(-c3[nH]c(C(C)(C)C)nc3-c3ccc(F)cc3)nc21 (10000 nM)  94.1%
7. Cc1c(C(=O)Nc2ccc(N3C[C@@H](C)O[C@@H](C)C3)nc2)cccc1-c1ccc(OC(F)(F)F)cc1 [Erismodegib] (10000 nM)  94.8%
8. Cn1cc(C[C@@H](N)C(=O)O)c2ccccc21 [1-methyl-D-tryptophan] (5000 nM)  97%

System: BT-474
Assay: as above
Conditions: incubation time: 72 h
Description: as §1

In order of falling normalised response:
1. Cn1cc(C[C@@H](N)C(=O)O)c2ccccc21 [1-methyl-D-tryptophan] (5000 nM)  96.4%
2. CC(C)NC[C@@H](C(=O)N1CCN(c2ncnc3c2[C@H](C)C[C@H]3O)CC1)c1ccc(Cl)cc1 [GDC-0068] (10000 nM)  86.6%
3. Cc1c(C(=O)Nc2ccc(N3C[C@@H](C)O[C@@H](C)C3)nc2)cccc1-c1ccc(OC(F)(F)F)cc1 [Erismodegib] (10000 nM)  73.5%
4. CC(C)(C)Cn1c(N)nc2ccc(-c3[nH]c(C(C)(C)C)nc3-c3ccc(F)cc3)nc21 (10000 nM)  66.4%
5. CC[C@H](CC#N)OC(=O)N[C@@H](C)c1cccc(NC(=O)Nc2ccc(-c3cnco3)c(OC)c2)c1 [AVN944] (10000 nM)  48.8%
6. COc1cc(Nc2ncc(F)c(Nc3ccc4c(n3)N(COP(=O)(O)O)C(=O)C(C)(C)O4)n2)cc(OC)c1OC [Fostamatinib] (2500 nM)  27%
7. CCc1cnn2c(NCc3ccc[n+]([O-])c3)cc(N3CCCC[C@H]3CCO)nc12 [Dinaciclib] (1000 nM)  20.2%
8. CCCc1cc(C)[nH]c(=O)c1CNC(=O)c1cc(-c2ccnc(N3CCN(C)CC3)c2)cc2c1cnn2C(C)C [GSK343] (10000 nM)  11.3%

System: MFM-223
Assay: as above
Conditions: incubation time: 72 h
Description: as §1

In order of rising normalised response:
1. CCc1cnn2c(NCc3ccc[n+]([O-])c3)cc(N3CCCC[C@H]3CCO)nc12 [Dinaciclib] (1000 nM)  11.5%
2. CC(C)NC[C@@H](C(=O)N1CCN(c2ncnc3c2[C@H](C)C[C@H]3O)CC1)c1ccc(Cl)cc1 [GDC-0068] (10000 nM)  23.3%
3. COc1cc(Nc2ncc(F)c(Nc3ccc4c(n3)N(COP(=O)(O)O)C(=O)C(C)(C)O4)n2)cc(OC)c1OC [Fostamatinib] (2500 nM)  37.8%
4. CCCc1cc(C)[nH]c(=O)c1CNC(=O)c1cc(-c2ccnc(N3CCN(C)CC3)c2)cc2c1cnn2C(C)C [GSK343] (10000 nM)  41.8%
5. CC[C@H](CC#N)OC(=O)N[C@@H](C)c1cccc(NC(=O)Nc2ccc(-c3cnco3)c(OC)c2)c1 [AVN944] (10000 nM)  49.7%
6. CC(C)(C)Cn1c(N)nc2ccc(-c3[nH]c(C(C)(C)C)nc3-c3ccc(F)cc3)nc21 (10000 nM)  63.7%
7. Cc1c(C(=O)Nc2ccc(N3C[C@@H](C)O[C@@H](C)C3)nc2)cccc1-c1ccc(OC(F)(F)F)cc1 [Erismodegib] (10000 nM)  80.8%
8. Cn1cc(C[C@@H](N)C(=O)O)c2ccccc21 [1-methyl-D-tryptophan] (5000 nM)  92.5%

System: CAL-85-1
Assay: as above
Conditions: incubation time: 72 h
Description: as §1

In order of rising normalised response:
1. CCc1cnn2c(NCc3ccc[n+]([O-])c3)cc(N3CCCC[C@H]3CCO)nc12 [Dinaciclib] (1000 nM)  8.86%
2. CCCc1cc(C)[nH]c(=O)c1CNC(=O)c1cc(-c2ccnc(N3CCN(C)CC3)c2)cc2c1cnn2C(C)C [GSK343] (10000 nM)  30.2%
3. COc1cc(Nc2ncc(F)c(Nc3ccc4c(n3)N(COP(=O)(O)O)C(=O)C(C)(C)O4)n2)cc(OC)c1OC [Fostamatinib] (2500 nM)  30.5%
4. CC[C@H](CC#N)OC(=O)N[C@@H](C)c1cccc(NC(=O)Nc2ccc(-c3cnco3)c(OC)c2)c1 [AVN944] (10000 nM)  38.4%
5. CC(C)(C)Cn1c(N)nc2ccc(-c3[nH]c(C(C)(C)C)nc3-c3ccc(F)cc3)nc21 (10000 nM)  64.9%
6. CC(C)NC[C@@H](C(=O)N1CCN(c2ncnc3c2[C@H](C)C[C@H]3O)CC1)c1ccc(Cl)cc1 [GDC-0068] (10000 nM)  66.1%
7. Cc1c(C(=O)Nc2ccc(N3C[C@@H](C)O[C@@H](C)C3)nc2)cccc1-c1ccc(OC(F)(F)F)cc1 [Erismodegib] (10000 nM)  91.8%
8. Cn1cc(C[C@@H](N)C(=O)O)c2ccccc21 [1-methyl-D-tryptophan] (5000 nM)  98.3%

System: MDA-MB-453
Assay: as above
Conditions: incubation time: 72 h
Description: as §1

In order of rising normalised response:
1. CCCc1cc(C)[nH]c(=O)c1CNC(=O)c1cc(-c2ccnc(N3CCN(C)CC3)c2)cc2c1cnn2C(C)C [GSK343] (10000 nM)  13.7%
2. CCc1cnn2c(NCc3ccc[n+]([O-])c3)cc(N3CCCC[C@H]3CCO)nc12 [Dinaciclib] (1000 nM)  20.6%
3. CC(C)NC[C@@H](C(=O)N1CCN(c2ncnc3c2[C@H](C)C[C@H]3O)CC1)c1ccc(Cl)cc1 [GDC-0068] (10000 nM)  29.6%
4. CC[C@H](CC#N)OC(=O)N[C@@H](C)c1cccc(NC(=O)Nc2ccc(-c3cnco3)c(OC)c2)c1 [AVN944] (10000 nM)  62.3%
5. COc1cc(Nc2ncc(F)c(Nc3ccc4c(n3)N(COP(=O)(O)O)C(=O)C(C)(C)O4)n2)cc(OC)c1OC [Fostamatinib] (2500 nM)  64.8%
6. Cc1c(C(=O)Nc2ccc(N3C[C@@H](C)O[C@@H](C)C3)nc2)cccc1-c1ccc(OC(F)(F)F)cc1 [Erismodegib] (10000 nM)  75.5%
7. CC(C)(C)Cn1c(N)nc2ccc(-c3[nH]c(C(C)(C)C)nc3-c3ccc(F)cc3)nc21 (10000 nM)  77.3%
8. Cn1cc(C[C@@H](N)C(=O)O)c2ccccc21 [1-methyl-D-tryptophan] (5000 nM)  91.4%

System: MDA-MB-436
Assay: as above
Conditions: incubation time: 72 h
Description: as §1

In order of falling normalised response:
1. Cn1cc(C[C@@H](N)C(=O)O)c2ccccc21 [1-methyl-D-tryptophan] (5000 nM)  95.1%
2. CC(C)(C)Cn1c(N)nc2ccc(-c3[nH]c(C(C)(C)C)nc3-c3ccc(F)cc3)nc21 (10000 nM)  82.1%
3. Cc1c(C(=O)Nc2ccc(N3C[C@@H](C)O[C@@H](C)C3)nc2)cccc1-c1ccc(OC(F)(F)F)cc1 [Erismodegib] (10000 nM)  78.6%
4. CC(C)NC[C@@H](C(=O)N1CCN(c2ncnc3c2[C@H](C)C[C@H]3O)CC1)c1ccc(Cl)cc1 [GDC-0068] (10000 nM)  77.5%
5. COc1cc(Nc2ncc(F)c(Nc3ccc4c(n3)N(COP(=O)(O)O)C(=O)C(C)(C)O4)n2)cc(OC)c1OC [Fostamatinib] (2500 nM)  67.5%
6. CCCc1cc(C)[nH]c(=O)c1CNC(=O)c1cc(-c2ccnc(N3CCN(C)CC3)c2)cc2c1cnn2C(C)C [GSK343] (10000 nM)  53.9%
7. CC[C@H](CC#N)OC(=O)N[C@@H](C)c1cccc(NC(=O)Nc2ccc(-c3cnco3)c(OC)c2)c1 [AVN944] (10000 nM)  38.1%
8. CCc1cnn2c(NCc3ccc[n+]([O-])c3)cc(N3CCCC[C@H]3CCO)nc12 [Dinaciclib] (1000 nM)  19.3%

System: HCC1599
Assay: as above
Conditions: incubation time: 72 h
Description: as §1

In order of falling normalised response:
1. Cc1c(C(=O)Nc2ccc(N3C[C@@H](C)O[C@@H](C)C3)nc2)cccc1-c1ccc(OC(F)(F)F)cc1 [Erismodegib] (10000 nM)  91.1%
2. Cn1cc(C[C@@H](N)C(=O)O)c2ccccc21 [1-methyl-D-tryptophan] (5000 nM)  87.9%
3. CC(C)NC[C@@H](C(=O)N1CCN(c2ncnc3c2[C@H](C)C[C@H]3O)CC1)c1ccc(Cl)cc1 [GDC-0068] (10000 nM)  82.5%
4. CC(C)(C)Cn1c(N)nc2ccc(-c3[nH]c(C(C)(C)C)nc3-c3ccc(F)cc3)nc21 (10000 nM)  78.1%
5. COc1cc(Nc2ncc(F)c(Nc3ccc4c(n3)N(COP(=O)(O)O)C(=O)C(C)(C)O4)n2)cc(OC)c1OC [Fostamatinib] (2500 nM)  66.8%
6. CC[C@H](CC#N)OC(=O)N[C@@H](C)c1cccc(NC(=O)Nc2ccc(-c3cnco3)c(OC)c2)c1 [AVN944] (10000 nM)  33.4%
7. CCCc1cc(C)[nH]c(=O)c1CNC(=O)c1cc(-c2ccnc(N3CCN(C)CC3)c2)cc2c1cnn2C(C)C [GSK343] (10000 nM)  22.8%
8. CCc1cnn2c(NCc3ccc[n+]([O-])c3)cc(N3CCCC[C@H]3CCO)nc12 [Dinaciclib] (1000 nM)  12.3%

System: SK-BR-3
Assay: as above
Conditions: incubation time: 72 h
Description: as §1

In order of falling normalised response:
1. Cn1cc(C[C@@H](N)C(=O)O)c2ccccc21 [1-methyl-D-tryptophan] (5000 nM)  93.2%
2. Cc1c(C(=O)Nc2ccc(N3C[C@@H](C)O[C@@H](C)C3)nc2)cccc1-c1ccc(OC(F)(F)F)cc1 [Erismodegib] (10000 nM)  81%
3. CC(C)(C)Cn1c(N)nc2ccc(-c3[nH]c(C(C)(C)C)nc3-c3ccc(F)cc3)nc21 (10000 nM)  62.7%
4. COc1cc(Nc2ncc(F)c(Nc3ccc4c(n3)N(COP(=O)(O)O)C(=O)C(C)(C)O4)n2)cc(OC)c1OC [Fostamatinib] (2500 nM)  60.3%
5. CC[C@H](CC#N)OC(=O)N[C@@H](C)c1cccc(NC(=O)Nc2ccc(-c3cnco3)c(OC)c2)c1 [AVN944] (10000 nM)  37.1%
6. CCc1cnn2c(NCc3ccc[n+]([O-])c3)cc(N3CCCC[C@H]3CCO)nc12 [Dinaciclib] (1000 nM)  2.06%

Source: the supplement of paper PMC4862054
